The source of these data is patent publication US9393213B2, “Nanocrystals, compositions, and methods that aid particle transport in mucus” (Kala Pharmaceuticals, Inc., priority 2012, dated 2016).

For data set [1], the system named is IL-1β, IL-1α, TNF-α, and IL-6. Kind of data set: Cytokine concentrations in cervicovaginal lavage after daily vaginal treatment for 7 days. Particulars: day 8 after daily dosing for seven days.
Experimental: Because our ultimate goal was to test MPPs for protection against HSV-2, we compared an MPP formulation containing acyclovir monophosphate (ACVp) to N9, HEC placebo gel, PBS, and a gel vehicle (TFV vehicle) used in recent tenofovir clinical trials. Nanoparticle and control formulations were administered vaginally to Depo Provera-treated mice daily for seven days.
Twenty μL of each test agent was administered intravaginally to the DP mouse model once-a-day for seven (7) days. […] On the eighth day, each mouse was lavaged twice with 50 μL of PBS. Each lavage sample was diluted with an additional 200 μL of PBS and centrifuged to remove the mucus plug. Supernatant (200 μL) was removed and split into 50 μL for each of the four (IL-1β, IL-1α, TNF-α, and IL-6) Quantikine ELISA kits (R&D Systems, Inc.). ELISAs were conducted per the manufacturer's instructions.
Data set [2] is described as follows: Acute vaginal toxicity by H&E staining 24 h after intravaginal administration. The data set is classed as in vivo, DP mice. How it is done: Standard hematoxylin and eosin (H&E) staining was used to investigate potential toxic effects of intravaginally administered nanoparticles. […] The same (BD-) MPPs and (BD-) CPs that were used for distribution and retention studies were tested for toxicity.
Five μL of particles or control solutions were administered intravaginally to the DP mouse model. After 24 h, whole cervicovaginal tracts were obtained and fixed in 4% paraformaldehyde solution for 24 h. Tissues were placed in 70% ethanol and taken to the Johns Hopkins Reference Histology Laboratory for paraffin embedding and standard H&E staining.

Data set [3] is classed as physicochemical. From the text:
Tenofovir (TFV) is a potent antiviral drug used to treat infectious diseases. Due to the fact that tenofovir (TFV) is highly water soluble, a method was developed for formulating mucus-penetrating particles of tenofovir. […] In order to decrease the water solubility of TFV, interactions between cations and nucleotides/nucleotide analogs were exploited. TFV interacts very strongly with zinc cations (Zn), via the phosphonate group and the purine ring structure. This interaction with zinc causes TFV precipitation into crystals that can be stabilized with the coatings described herein, halting aggregation and determining the crystal surface properties. Additionally, Zn is naturally present in vaginal fluid and has known antimicrobial properties recently extended to include anti-HIV activity.

The text on data set [4]: [formula] where <Vmean> is the ensemble average trajectory-mean velocity, Vmean is the velocity of an individual particle averaged over its trajectory, the sample is the particle of interest, the negative control is a 200 nm carboxylated polystyrene particle, and the positive control is a 200 nm polystyrene particle densely PEGylated with 2 kDa-5 kDa PEG.
For instance, a fluorescent microscope equipped with a CCD camera can be used to capture 15 s movies at a temporal resolution of 66.7 ms (15 frames/s) under 100× magnification from several areas within each sample for each type of particles: sample, negative control, and positive control.
In a typical experiment, ≦0.5 uL of a nanosuspension (diluted if necessary to the surfactant concentration of ˜1%) was added to 20 μl of fresh CVM along with controls. […] Using a fluorescent microscope equipped with a CCD camera, 15 s movies were captured at a temporal resolution of 66.7 ms (15 frames/s) under 100× magnification from several areas within each sample for each type of particles: sample (pyrene), negative control, and positive control (natural blue fluorescence of pyrene allowed observing of pyrene nanoparticles separately from the controls). […] To enable easy comparison between different samples and normalize velocity data with respect to natural variability in penetrability of CVM samples, relative sample velocity <Vmean>rel, was determined according to the formula shown in Equation 1.
CVM was collected by inserting a Softcup® menstrual collection cup into the vaginal tract as described by the product literature for between 30 seconds and 2 minutes. After removal the CVM was then collected from the Softcup® by gentle centrifugation at ˜30×G to ˜120×G in a 50 mL centrifuge tube. In Example 1, CVM was used undiluted and fresh (stored for no longer than 7 days under refrigerated conditions). Barrier and transport of all CVM samples used in Example 1 were verified with negative (200 nm carboxylated polystyrene particles) and positive (200 nm polystyrene particles modified with PEG 5K) controls. In Example 2, CVM was lyophilized and reconstituted. In Example 2, mucus was frozen at −50° C. and then lyophilized to dryness. Samples were then stored at −50° C. Before use, the mucus was reconstituted by grinding the solid into a fine powder using a mortar and pestle followed by water addition to a final volume equal to the original volume to 2 times the original volume. The reconstituted mucus was then incubated at 4° C. for 12 hours and used as described in Example 2. Barrier and transport of all CVM samples used in Example 2 were verified with negative (200 nm carboxylated polystyrene particles) and positive (F127 coated 200 nm polystyrene particles) controls.

Another data set relates to HSV-2 strain G. Kind of data set: HSV-2 vaginal challenge in mice. The format is in vivo, CF-1 mice. Particulars: intravaginal 30 min before challenge. How it is done:
Female 6-8 week old CF-1 mice were subcutaneously injected with medroxyprogesterone acetate, and one week later received 20 μl of test agent or PBS intravaginally with a fire-polished positive displacement capillary pipette (Wiretrol, Drummond Scientific). Thirty minutes later, mice were challenged with 10 uL of inoculum containing HSV-2 strain G (ATCC #VR-734, 2.8×10^7 TCID50 per mL). […] Mice were assessed for infection three days later after inoculation by culturing a PBS vaginal lavage on human foreskin fibroblasts (Diagnostic Hybrids, MRHF Lot #440318W), as described previously (R. A. Cone, T. Hoen, X. Wong, R. Abusuwwa, D. J. Anderson, T. R. Moench, Vaginal microbicides: detecting toxicities in vivo that paradoxically increase pathogen transmission. BMC Infect Dis 6, 90 (2006)).
Both the drug and the virus were administered intravaginally.
ACVp nanoparticles were formulated with the same muco-inert coating used for all other studies. […] To study the distribution and retention of nanoparticles at the vaginal mucosal surface and the effects of repeated dosing, 6-8 week old CF-1 mice (Harlan) were used. Mice were housed in a reversed light cycle facility (12 h light/12 h dark). […] Journal of Virology 79, 3107-3116 (2005)).
All data are presented as a mean with standard error of the mean (SEM) indicated. Statistical significance was determined by a two-tailed, Student's t-test (α=0.05) assuming unequal variance. In the case of HSV-2 challenge, statistical significance was determined using Fisher's exact test, two-tailed distribution.

In the next data set the test system is HSV-2. Particulars: single vaginal pretreatment with 50 mg/mL (5%); guinea pigs; cited from earlier work.

In the case of Nonoxynol-9 [N9], in data set [1], the “IL-1α level in vaginal lavage” value was “elevated” and the “IL-1β level in vaginal lavage” value is listed as “elevated”. Moreover, the “inflammation in H&E-stained vaginal tissue” value in data set [2] is listed as “acute inflammation”.
Take `C[C@H](Cn1cnc2c(N)ncnc21)OCP(=O)(O)O` [TFV, tenofovir]: the water solubility result in data set [3] is on record as “at least 15 mg/mL”.
With Tyloxapol, in data set [4], the “Sample (relative) <Vmean>rel” value is −0.02 and the “Sample <Vmean>” value came out at 0.42 um/s.
Take acyclovir monophosphate [Soluble ACV]: the “% Infected” value with HSV-2 strain G (1 mg/mL in PBS) turned out to be 84.0%; with HSV-2 strain G (1 mg/mL in PBS, listed as Soluble ACVp), 84%; with HSV-2 strain G (1 mg/mL in PBS, listed as soluble ACVp) it was 84.0%; in the data set with HSV-2 strain G (10 mg/mL in PBS), 62.0%; in the data set on HSV-2 strain G (10 mg/mL in PBS, listed as Soluble ACVp), 62%; in the data set with HSV-2 strain G (10 mg/mL in PBS, listed as soluble ACVp), 62.0%. Besides, in the data set with HSV-2 strain G (10 mg/mL in Water), the “% Infected” value was found to be 69.3%. The “# Infected” value with HSV-2 strain G (1 mg/mL in PBS, 25 mice) is reported as 21; in the data set with HSV-2 strain G (10 mg/mL in PBS, 100 mice) it was 62; with HSV-2 strain G (10 mg/mL in Water, 75 mice), 52. Moreover, the “animals infected compared to controls” value with HSV-2 is given as 70%.
Tween 80: in data set [4], the “Sample (relative) <Vmean>rel” value is reported as 0.17 and the “Sample <Vmean>” value is 0.94 um/s.
